Consider one compound from ChEMBL document CHEMBL5325505, “Discovery of chiral 1,4-diarylazetidin-2-one-based hydroxamic acid derivatives as novel tubulin polymerization inhibitors with histone deacetylase inhibitory activity” (Bioorg Med Chem, 2023).

Activity calls are given as the source filed them. No cut-off for these calls is given here.

One series deals with U-87 MG. The series can be described thus: Antiproliferative activity against human U-87 MG cells incubated for 48 hrs by MTT assay. The format is functional, cell-based, U-87MG ATCC. For orientation: Formazan colour is commonly taken as a measure of viable cells.
Series [1] in a line: Metabolic stability in human liver microsomes assessed as compound remaining incubated for 10 mins. The format is ADME, Microsome. To be noted: read-out: Stability. In general terms: Microsomes from liver hold many membrane-bound enzymes, among them those of drug oxidation.
Series [2] concerns BE(2)-C. The series can be described thus: Upregulation of cleaved PARP-1 expression in human BE2C cells at 25 to 100 nM by Western blot analysis. The note with it: dose 25-100 nM. The format is functional, cell-based. In general terms: In western blotting, separated proteins are transferred to a membrane and probed.
Series [3] is described as follows: Metabolic stability in human liver microsomes assessed as compound remaining incubated for 5 mins. The format is ADME, Microsome. To be noted: read-out: Stability.
A short description of series [4]: Metabolic stability in human liver microsomes assessed as intrinsic clearance. The format is ADME, Microsome. To be noted: read-out: CLH.
In a further series the target is Tubulin (Homo sapiens) (UniProt P68371+Q9H4B7+P0DPH7+P68366+Q13509+Q71U36+P04350+Q3ZCM7+P07437+P68363+Q9BQE3+Q6PEY2+Q13885+Q9BVA1+Q9BUF5). The series can be described thus: Inhibition of tubulin polymerization in human BE2C cells assessed as decrease in tubulin density at 25 to 100 nM incubated for 24 hrs by immunofluorescence based microscopy. The format is cell-based. The note with it: dose 25-100 nM.

Series [5] deals with BE(2)-C. The series can be described thus: Induction of apoptosis in human BE2C cells assessed as late apoptotic cells at 25 nM incubated for 48 hrs by annexin V-FITC/PI staining based flow cytometry (reference value: 9.99 %). The format is functional.
Series [6] concerns BE(2)-C. Kind of series: Antitumor activity against human BE2C cells xenografted in nude mouse assessed as tumor growth inhibition at 25 mg/kg, ip treated for every 3 days relative to control. The format is functional. To be noted: 72 h, time 3 day, read-out: TGI.
For series [7], the system named is BE(2)-C. The series can be described thus: Upregulation of acetylated H3 expression in human BE2C cells by Western blot analysis. Type of series: functional, cell-based. The note with it: dose 25-100 nM.
Series [8] has as its system BE(2)-C. The series can be described thus: Induction of cell cycle arrest in human BE2C cells assessed as increase in cyclin B1 expression by Western blot analysis. The format is functional, cell-based. The note with it: dose 12.5-50 nM.
The nature of series [9]: Toxicity in nude mouse xenografted with human BE2C cells assessed as adverse effect at 25 mg/kg, ip treated for every 3 days. The format is organism-based. The note with it: in vivo, 72 h, time 3 day.
A short description of series [10]: Metabolic stability in human liver microsomes assessed as compound remaining incubated for 30 mins. To be noted: liver microsomes, read-out: Stability. Type of series: ADME, Microsome.
For series [11], the target named is T1, Protein deacetylase HDAC6 (Homo sapiens, UniProt Q9UBN7).
T1 sequence (Q9UBN7 whole entry): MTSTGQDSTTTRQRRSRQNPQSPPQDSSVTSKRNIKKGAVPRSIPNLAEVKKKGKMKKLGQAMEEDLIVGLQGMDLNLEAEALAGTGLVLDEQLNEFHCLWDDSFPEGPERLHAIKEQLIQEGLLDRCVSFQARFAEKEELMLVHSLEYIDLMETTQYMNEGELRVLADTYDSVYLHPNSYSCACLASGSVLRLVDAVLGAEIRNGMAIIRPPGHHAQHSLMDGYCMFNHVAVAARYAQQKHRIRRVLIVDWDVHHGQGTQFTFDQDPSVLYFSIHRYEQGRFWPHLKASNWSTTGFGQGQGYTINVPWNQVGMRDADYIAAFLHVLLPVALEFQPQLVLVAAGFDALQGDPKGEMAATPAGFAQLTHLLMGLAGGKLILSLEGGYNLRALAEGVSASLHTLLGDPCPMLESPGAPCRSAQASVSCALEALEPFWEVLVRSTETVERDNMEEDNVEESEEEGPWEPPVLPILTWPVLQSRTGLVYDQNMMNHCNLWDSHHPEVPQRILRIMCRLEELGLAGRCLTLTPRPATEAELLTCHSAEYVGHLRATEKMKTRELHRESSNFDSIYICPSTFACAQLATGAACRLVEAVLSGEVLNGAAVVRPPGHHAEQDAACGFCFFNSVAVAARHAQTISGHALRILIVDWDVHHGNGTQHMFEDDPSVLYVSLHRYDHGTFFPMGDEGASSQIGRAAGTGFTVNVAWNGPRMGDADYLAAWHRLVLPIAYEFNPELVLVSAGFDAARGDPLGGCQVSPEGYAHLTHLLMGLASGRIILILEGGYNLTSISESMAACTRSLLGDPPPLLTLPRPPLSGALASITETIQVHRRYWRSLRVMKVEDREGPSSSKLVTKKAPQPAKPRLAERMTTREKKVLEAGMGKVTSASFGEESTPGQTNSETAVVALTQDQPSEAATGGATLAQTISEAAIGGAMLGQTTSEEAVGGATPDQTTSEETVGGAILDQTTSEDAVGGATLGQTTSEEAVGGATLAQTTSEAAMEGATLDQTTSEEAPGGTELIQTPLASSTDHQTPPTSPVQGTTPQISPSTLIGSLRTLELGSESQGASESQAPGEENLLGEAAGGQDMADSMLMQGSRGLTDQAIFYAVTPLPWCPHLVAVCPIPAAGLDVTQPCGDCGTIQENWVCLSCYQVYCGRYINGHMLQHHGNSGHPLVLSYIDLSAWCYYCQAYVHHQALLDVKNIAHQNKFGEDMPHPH
Kind of series: Inhibition of HDAC6 (unknown origin).

In another series the target is T2, Histone deacetylase 8 (Homo sapiens, UniProt Q9BY41).
T2 sequence (Q9BY41 whole entry): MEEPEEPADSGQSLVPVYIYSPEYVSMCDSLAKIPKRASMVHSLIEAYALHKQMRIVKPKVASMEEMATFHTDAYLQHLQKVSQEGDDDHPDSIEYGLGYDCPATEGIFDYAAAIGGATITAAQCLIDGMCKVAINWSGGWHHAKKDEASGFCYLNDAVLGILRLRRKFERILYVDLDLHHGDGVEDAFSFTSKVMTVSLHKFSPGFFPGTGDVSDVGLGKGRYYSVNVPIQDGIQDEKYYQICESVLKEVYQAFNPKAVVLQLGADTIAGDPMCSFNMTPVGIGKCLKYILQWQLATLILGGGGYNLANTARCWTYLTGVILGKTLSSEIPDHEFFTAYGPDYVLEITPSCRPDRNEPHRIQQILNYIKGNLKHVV
The series can be described thus: Inhibition of HDAC8 (unknown origin).

Series [12] has as its system BE(2)-C. The series can be described thus: Induction of cell cycle arrest in human BE2C cells assessed as accumulation at G2/M phase at 100 nM incubated for 24 hrs by RNase/PI staining based flow cytometry (reference value: 31 %). Type of series: functional.
Series [13] deals with BE(2)-C. The series can be described thus: Induction of apoptosis in human BE2C cells assessed as early apoptotic cells at 100 nM incubated for 48 hrs by annexin V-FITC/PI staining based flow cytometry (reference value: 4.28 %). The format is functional.
Series [14] can be described thus: Metabolic stability in human liver microsomes assessed as compound remaining incubated for 60 mins. The format is ADME, Microsome. The note with it: liver microsomes, read-out: Stability.
For the next series, the target named is Tubulin (Sus scrofa) (UniProt P02554+P02550). The series can be described thus: (§1) Inhibition of tubulin polymerization of pig brain by absorbance based assay. The note with it: dose 0.4-12 µM.
Sequence of Tubulin (Sus scrofa) (P02550 whole entry, looked up): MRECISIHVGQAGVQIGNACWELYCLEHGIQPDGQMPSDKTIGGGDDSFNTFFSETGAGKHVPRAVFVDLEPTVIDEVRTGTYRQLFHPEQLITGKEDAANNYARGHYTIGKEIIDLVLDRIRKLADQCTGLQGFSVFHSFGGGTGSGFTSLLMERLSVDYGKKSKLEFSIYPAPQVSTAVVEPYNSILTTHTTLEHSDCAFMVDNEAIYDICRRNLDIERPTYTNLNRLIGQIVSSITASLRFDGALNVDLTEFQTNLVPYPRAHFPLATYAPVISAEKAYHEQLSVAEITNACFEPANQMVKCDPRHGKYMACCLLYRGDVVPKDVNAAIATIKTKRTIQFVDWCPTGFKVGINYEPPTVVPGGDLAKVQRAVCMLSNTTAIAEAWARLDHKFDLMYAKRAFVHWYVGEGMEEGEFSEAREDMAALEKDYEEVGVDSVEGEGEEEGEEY
Sequence of Tubulin (Sus scrofa) (P02554 whole entry, looked up): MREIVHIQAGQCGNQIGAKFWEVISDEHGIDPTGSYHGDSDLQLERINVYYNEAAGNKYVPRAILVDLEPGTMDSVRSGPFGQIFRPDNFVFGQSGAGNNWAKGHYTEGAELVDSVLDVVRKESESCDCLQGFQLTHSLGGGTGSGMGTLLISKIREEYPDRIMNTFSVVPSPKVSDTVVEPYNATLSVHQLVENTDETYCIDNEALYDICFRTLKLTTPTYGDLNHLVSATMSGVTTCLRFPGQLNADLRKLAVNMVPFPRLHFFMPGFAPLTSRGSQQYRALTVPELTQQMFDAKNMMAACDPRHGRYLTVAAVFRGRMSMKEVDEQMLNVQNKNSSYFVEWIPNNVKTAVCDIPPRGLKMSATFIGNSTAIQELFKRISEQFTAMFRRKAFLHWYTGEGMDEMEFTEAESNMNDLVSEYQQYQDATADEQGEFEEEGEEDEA
In the next series the target is Tubulin (Sus scrofa, UniProt P02554+P02550). Described as §1.
Series [15] deals with BE(2)-C. The series can be described thus: Inhibition of colony formation in human BE2C cells at 100 nM incubated for 36 hrs by gentian violet staining based assay relative to control. The format is functional.
Series [16] deals with BE(2)-C. Kind of series: Induction of apoptosis in human BE2C cells assessed as early apoptotic cells at 50 nM incubated for 48 hrs by annexin V-FITC/PI staining based flow cytometry (reference value: 4.28 %). The format is functional.
Series [17] relates to BE(2)-C. The series can be described thus: Upregulation of acetylated tubulin expression in human BE2C cells by Western blot analysis. The format is functional, cell-based. The note with it: dose 25-100 nM.
In series [18] the test system is BE(2)-C. The series can be described thus: Antiproliferative activity against human BE2C cells incubated for 48 hrs by MTT assay. The format is functional, cell-based.

Regarding `COc1ccc([C@H]2[C@H](COC(=O)c3ccc(C(=O)NO)cc3)C(=O)N2c2cc(OC)c(OC)c(OC)c2)cc1O`, the IC50 (commonly the concentration at which inhibition is half-maximal) was 56 nM with U-87 MG; 1040 nM in [11]; 177 nM on Histone deacetylase 8; 5400 nM against Tubulin; 17 nM in the series on BE(2)-C [18]. For the same compound, in series [1], the remaining at 10 min was 80%. Besides, in the series on BE(2)-C [2], the result was Active. Moreover, the remaining at 5 min in series [3] stood at 89.4%. Moreover, the CLint scaled in series [4] came out at 18.1 mL/min/kg. Besides, the inhibition – broadly, the change of the read-out against control, counted positive when it falls – at Tubulin (Homo sapiens) is “Active”. Further, the Activity was 19.01% in the series with BE(2)-C [5]; “Dose-Dependent Effect” in the series with BE(2)-C [7]; “Dose-Dependent Effect” in the series on BE(2)-C [8]; “Non-Toxic” in series [9]; about 77% in the series on BE(2)-C [12]; 17.27% in the series on BE(2)-C [13]. The Activity was 12.23% in the series with BE(2)-C [16] and “Dose-Dependent Effect” with BE(2)-C [17]. Besides, the inhibition in vivo at 25 mg/kg in the series on BE(2)-C [6] was 67%. In addition, the remaining at 0.5 h in series [10] was 58.2%. Besides, the remaining at 1 h in [14] turned out to be 55.3%. Further, the inhibition entry on Tubulin (Sus scrofa) is “Dose-Dependent Effect”. This compound also showed an inhibition at 0.1 µM in the series with BE(2)-C [15] of 100%.
